These results are taken from patent US20040024024A1, “Aromatic sulfone hydroxamates and their use as protease inhibitors” (priority 2001, published 2004).

Where only a bound is given, the exact number is not on record here.

Common to all, as to assay type: biochemical
In one assay the target is T1, Human recombinant MMP-1 (Homo sapiens, UniProt P03956).
T1 construct: made in house; host or cells: MMP-1-transfected HT-1080 cells (spent media)
T1 sequence (P03956 100-469): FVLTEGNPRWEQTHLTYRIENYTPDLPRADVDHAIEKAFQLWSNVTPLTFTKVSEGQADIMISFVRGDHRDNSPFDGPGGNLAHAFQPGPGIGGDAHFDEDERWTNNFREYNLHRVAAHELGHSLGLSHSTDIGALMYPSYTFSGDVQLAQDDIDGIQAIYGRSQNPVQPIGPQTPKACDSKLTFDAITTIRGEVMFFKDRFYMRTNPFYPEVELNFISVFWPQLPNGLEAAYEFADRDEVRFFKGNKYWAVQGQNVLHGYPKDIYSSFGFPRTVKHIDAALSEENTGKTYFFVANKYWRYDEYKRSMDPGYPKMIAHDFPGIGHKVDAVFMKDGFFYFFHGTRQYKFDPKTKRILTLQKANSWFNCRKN
The assay is described as follows: In vitro MMP inhibition, Ki determination (fluorogenic substrate II). How it is done:
(§1) Several hydroxamates and salts thereof were analyzed in in vitro assays to determine their ability to inhibit the MMP cleavage of peptide substrates. Inhibition (Ki) and IC50 constants were calculated from the assayed hydroxamate-MMP interactions.
(§2) Human recombinant MMP-1, MMP-2, MMP-9, MMP-13, and MMP-14 were used in this assay. All enzymes were prepared in Assignee's laboratories following usual laboratory procedures. Protocols for the preparation and use of these enzymes are available in the scientific literature. See, e.g., Enzyme Nomenclature (Academic Press, San Diego, Calif., 1992) (and the citations therein). See also, Frije et al., J. Biol. Chem., 26(24), 16766-73 (1994).
The MMP-1 proenzyme was purified from the spent media of MMP-1-transfected HT-1080 cells provided by Dr. Harold Welgus of Washington University (St. Louis, Mo.). The protein was purified on a zinc chelating column.
(§3) All MMPs were activated using 4-aminophenylmercuric acetate (“APMA”, Sigma Chemical, St. Louis, Mo.) or trypsin. MMP-9 also was activated using human recombinant MMP-3 (purified in Assignee's laboratory following standard cloning and purification techniques).
(§4) Two fluorogenic, methoxycoumarin-containing polypeptide substrates were used in the MMP inhibition assays:
(§5) MCA-ArgProLeuGlyLeuDpaAlaArgGluArgNH2 (II)
(§6) Here, “Dpa” is 3-(2,4-dinitrophenyl)-L-2,3-diaminopropionyl group, and “MCA” is 7-methoxycoumarin-4-yl acetyl. Substrate (I) was purchased from Baychem (Redwood City, Calif.), and substrate II was prepared Assignee's laboratory. Substrate I was used in the IC50 determination assays, while substrate II was used in the Ki determination assays. In the absence of MMP inhibitory activity, either substrate is cleaved at the Gly-Leu peptide bond. This cleavage separates the highly fluorogenic peptide from the 2,4-dinitrophenyl quencher, thus resulting in increase of fluorescent intensity.
(§7) The stock solutions of the assayed hydroxamates (or salts thereof) were prepared in 1% dimethyl sulfoxide (DMSO). These stock solutions were diluted in Buffer A (100 mM Tris-HCl, 100 mM NaCl, 10 mM CaCl2, 0.05% polyoxyethylene 23 lauryl ether, pH 7.5) to obtain solutions with different hydroxamate concentrations, i.e., assay solutions with different concentrations of the assayed MMP inhibitory compound. The experiment controls contained the same amount of Buffer A/DMSO as the assayed sample, but contained no hydroxamate (or salt thereof).
(§8) The assays from which the Ki determinations were made were performed as follows. The assayed hydroxamate samples were incubated in separate wells of untreated white polystyrene plates (Nunc Nalgene International, Rochester, N.Y.), and analyzed on a Tecan SpectraFlour Plus plate reader. The excitation wavelength was 330 nm, and the emission wavelength—420 nm. All samples (assayed hydroxamates and controls) were incubated in separate plate wells at room temperature for 1 hr in the presence of 4 μM of MMP substrate (II). In the absence of MMP inhibitory activity, substrate II was cleaved at the Gly-Leu bond resulting in an increase of relative fluorescence. Inhibition was observed as a reduced rate of this increase in relative fluorescence. The various hydroxamates were analyzed using a single low enzyme concentration with a single substrate concentration fixed at or below the Km. This protocol is a modification of method by Knight et al., FEBS Lett., 296(3), 263-266 (1992). Apparent inhibitory constants were determined by non-linear regression of reaction velocity as a function of inhibitor and enzyme concentration using Morrison's equation, as described by Kuzmic, Anal. Biochem. 286, 45-50 (2000). Modifications were made in the non-linear regression method to allow a common control reaction rate and effective enzyme concentration to be shared between all dose-response relationships on a given assay plate. […]

In assay [1] the target is T2, Human recombinant MMP-14 (Homo sapiens, UniProt P50281).
T2 construct: The catalytic domain enzyme was expressed in E. coli inclusion bodies, solubilized in urea; made in house
The description is as above. The protocol: as §1, §2
The MMP-14 full length cDNA was provided by Dr. Gregory Goldberg of Washington University (St. Louis, Mo.). The catalytic domain enzyme was expressed in E. coli inclusion bodies, solubilized in urea, purified on a preparative […] reverse phase HPLC column, and then refolded in the presence of zinc acetate and purified for use.
as §3, §4, §5, §6, §7, §8

Another assay addresses T3, Human recombinant MMP-9 (Homo sapiens, UniProt P14780).
T3 construct: made in house; host or cells: MMP-9-transfected HT1080 cells (spent media)
The assay is described as above. How it is done: as §1, §2
The MMP-9 proenzyme was purified by gelatin Sepharose chromatography from spent media of MMP-9-transfected HT1080 cells provided by Dr. Howard Welgus of Washington University (St. Louis, Mo.).
as §3, §4, §5, §6, §7, §8

Assay [2] has as its target T2, Human recombinant MMP-14. The assay is described as follows: In vitro MMP inhibition, IC50 determination (fluorogenic substrate I). The settings on record: value outside parentheses. In a few lines:
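IC50 came from reduced fluorescence (ex 328 nm, em 415 nm) as inhibitor concentration rose, with 4 μM substrate I cleaved at Gly-Leu. Room-temperature incubation in pH 7.5 Tris buffer with 10 mM CaCl2; the E. coli-expressed, refolded MMP-14 catalytic domain was activated with trypsin or APMA.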

T3 sequence (P14780 107-707 limits assumed): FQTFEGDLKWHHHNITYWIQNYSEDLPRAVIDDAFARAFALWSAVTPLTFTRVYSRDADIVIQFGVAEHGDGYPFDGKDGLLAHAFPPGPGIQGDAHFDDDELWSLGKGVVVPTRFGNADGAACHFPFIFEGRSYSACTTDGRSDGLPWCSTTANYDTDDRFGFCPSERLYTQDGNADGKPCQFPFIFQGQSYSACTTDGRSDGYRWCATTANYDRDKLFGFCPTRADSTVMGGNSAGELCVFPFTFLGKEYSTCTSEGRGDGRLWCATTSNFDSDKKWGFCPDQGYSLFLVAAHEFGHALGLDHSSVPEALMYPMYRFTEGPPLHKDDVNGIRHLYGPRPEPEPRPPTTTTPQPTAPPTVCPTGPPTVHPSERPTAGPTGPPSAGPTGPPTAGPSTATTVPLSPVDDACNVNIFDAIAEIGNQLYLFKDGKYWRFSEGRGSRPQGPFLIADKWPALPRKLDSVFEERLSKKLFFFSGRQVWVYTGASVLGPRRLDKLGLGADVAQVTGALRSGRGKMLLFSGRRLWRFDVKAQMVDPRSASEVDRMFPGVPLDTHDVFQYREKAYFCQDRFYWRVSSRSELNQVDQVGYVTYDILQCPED

Turning to `Cc1ccccc1-c1cccc(CCCOc2ccc(S(=O)(=O)C3(C(=O)NO)CCOCC3)cc2)c1` [Example 164], the Ki on Human recombinant MMP-1 (value in parenthesis) was above 10 µM; at Human recombinant MMP-14 [1] (value in parenthesis) it was above 10 µM; at Human recombinant MMP-9 (value in parenthesis) it was 2.72 µM.

For the molecule `Cc1ccc(-c2cccc(CCCOc3ccc(S(=O)(=O)C4(C(=O)NO)CCOCC4)cc3)c2)cc1C` [Example 165], the Ki at Human recombinant MMP-1 (value in parenthesis) is above 10 µM; on Human recombinant MMP-14 [1] (value in parenthesis), above 10 µM; at Human recombinant MMP-9 (value in parenthesis), 9.75 µM.

Take `O=C(NO)C1(S(=O)(=O)c2ccc(OCCCc3cncc(Br)c3)cc2)CCOCC1` [Example 522]: the inhibition constant (Ki) on Human recombinant MMP-1 (value in parentheses) is above 10 µM; at Human recombinant MMP-14 [1] (value in parentheses) it was 6.29 µM; on Human recombinant MMP-9 (value in parentheses), 0.135 µM.

In the case of `O=C(NO)C1(S(=O)(=O)c2ccc(OCCCc3cncc(-c4ccccc4)c3)cc2)CCOCC1` [Example 524], the Ki is above 10 µM on Human recombinant MMP-14 [1] (value in parentheses) and 0.739 µM on Human recombinant MMP-9 (value in parentheses). Besides, the IC50 on Human recombinant MMP-14 [2] is above 10 µM.

For `O=C(COc1ccc(S(=O)(=O)C2(C(=O)NO)CCOCC2)cc1)c1cccc(-c2ccccc2)c1` [Example 563], the figures for the Ki at Human recombinant MMP-1 (value in parentheses), on Human recombinant MMP-14 [1] (value in parentheses) and at Human recombinant MMP-9 (value in parentheses) were above 10 µM, 4.4 µM and 0.132 µM, respectively.

On to `O=C(CCCOc1ccc(S(=O)(=O)C2(C(=O)NO)CCOCC2)cc1)Nc1cccc(I)c1` [Example 570], for which the inhibition constant (Ki) on Human recombinant MMP-1 (value in parentheses) was determined as 3.06 µM; at Human recombinant MMP-14 [1] (value in parentheses) it was 1.36 µM; on Human recombinant MMP-9 (value in parentheses) it was 0.00615 µM.

With `O=C(NO)C1(S(=O)(=O)c2ccc(OCCCc3cccc(-n4ccnc4)c3)cc2)CCOCC1` [Example 574], the Ki at Human recombinant MMP-1 (value in parentheses) is above 10 µM; on Human recombinant MMP-14 [1] (value in parentheses), 5.39 µM; at Human recombinant MMP-9 (value in parentheses), 0.083 µM.

For the molecule `O=C(NO)C1(S(=O)(=O)c2ccc(OCCCc3nc(-c4cccnc4)no3)cc2)CCOCC1` [Example 578], the figures for the inhibitory constant (Ki) on Human recombinant MMP-1 (value in parentheses), at Human recombinant MMP-14 [1] (value in parentheses) and at Human recombinant MMP-9 (value in parentheses) were above 10 µM, above 10 µM and 0.578 µM, respectively.

Turning to `O=C(NO)C1(S(=O)(=O)c2ccc(OCCCc3nc(-c4ccccc4)no3)cc2)CCOCC1` [Example 584], the Ki at Human recombinant MMP-1 (value in parentheses) was determined as 2.76 µM; at Human recombinant MMP-14 [1] (value in parentheses), 6.63 µM; on Human recombinant MMP-9 (value in parentheses), 0.0126 µM.

On to `O=C(NO)C1(S(=O)(=O)c2ccc(OCCCc3cccc(-c4cccs4)c3)cc2)CCOCC1` [Example 595], for which the Ki is above 10 µM on Human recombinant MMP-14 [1] (value in parentheses) and 2.06 µM at Human recombinant MMP-9 (value in parentheses). Moreover, the IC50 on Human recombinant MMP-14 [2] is above 10 µM.

With `O=C(NCCOc1ccc(S(=O)(=O)C2(C(=O)NO)CCOCC2)cc1)c1cc2ccccc2[nH]1` [Example 599], the Ki at Human recombinant MMP-1 (value in parentheses) was above 10 µM; on Human recombinant MMP-9 (value in parentheses), 0.0113 µM. Moreover, the IC50 at Human recombinant MMP-14 [2] was 0.057 µM.

Consider `O=C(NO)C1(S(=O)(=O)c2ccc(OCCCc3cccc(-c4ccc(C(F)(F)F)cc4)c3)cc2)CCOCC1` [Example 625], for which the figures for the Ki on Human recombinant MMP-1 (value in parentheses), on Human recombinant MMP-14 [1] (value in parentheses) and on Human recombinant MMP-9 (value in parentheses) were above 10 µM, above 10 µM and 4.6 µM, respectively.

In the case of `O=C(NO)C1(S(=O)(=O)c2ccc(OCCCc3cccc(-c4ccc5c(c4)OCCO5)c3)cc2)CCOCC1` [Example 627], the Ki at Human recombinant MMP-1 (value in parentheses) was above 10 µM; at Human recombinant MMP-14 [1] (value in parentheses), above 10 µM; on Human recombinant MMP-9 (value in parentheses) it was 3.15 µM.
